row,Structure (SMILES),melting point [°C]
1,CC1=Nc2c(C)nn(C)c2C2=NC(C)C(C)N12 (centres undefined),280
2,O=[N+]([O-])c1cccc2[nH]ncc12,172 to 174
3,CCc1cccc(CC(=O)O)c1OCCCc1cn(-c2ncc(Cl)cc2Cl)nc1C(C)C,93 to 95
4,Cc1oc(C2(C)CCCCC2)nc1C(=O)O,128 to 129
5,Cc1cccc(OCC(=O)N[C@@H](Cc2ccccc2)C(=O)CSCc2ccco2)c1,76 to 78
6,CN(Cc1ccc2c(Br)c(OCc3nnn[nH]3)ccc2c1)C(=O)c1cn(Cc2ccccc2)c2ccccc12,197 to 198
7,CCCCCCCCCCCCCCCCC(=O)n1cc(F)c(=O)[nH]c1=O,102
8,Cc1nn(C)c(O)c1C(=O)c1ccc(Cl)c(C)c1Cl,149 to 150
9,Cc1cc(SC(C)C)c(NC(=O)CCCCCCSc2nc3ccccc3s2)c(SC(C)C)n1,74 to 76
10,COc1cc(C(O)CCCc2ccccc2)ccc1OCc1ccccc1 (centres undefined),71 to 73
11,CC(=O)NC(=O)CSCc1ccccc1,86 to 87
12,CC1C(=O)CC(C)C(C#N)C1=O (centres undefined),178 to 179
13,O=c1[nH]c(=O)n(CCCCN2CC=C(c3ccccc3)CC2)c2cc([N+](=O)[O-])ccc12,242 to 244
14,O=c1ccn([C@H]2C=C[C@@H](O)C2)cc1 (racemic),188 to 189
15,CCOC(=O)C(C)(C#N)c1cccc2c(-c3ccc(Cl)cc3)nccc12 (centres undefined),92 to 93.5
16,COc1nsc(S(C)(=O)=O)c1C#N,167 to 168
17,Cc1cc(C2=NOC(c3cc(Cl)cc(Cl)c3)(C(F)(F)F)C2)ccc1C(=O)NCc1ccccn1 (centres undefined),131 to 136
18,CCOC(=O)c1c(Cn2cncn2)nc2sc(C)c(C)c2c1-c1ccc(OC)c(OC)c1,136 to 137
19,Cc1cc2c(cc1S(=O)(=O)c1cc(Cl)ccc1Cl)OC(C(=O)O)O2 (centres undefined),155 to 157
20,O=c1[nH]nc(-c2ccc(N=Cc3ccc(O)cc3)cc2)c(O)c1O,233
21,CCOP(=O)(OCC)C(O)c1ccc([N+](=O)[O-])cc1 (centres undefined),94 to 95
22,Cc1onc2c1C(=O)N(C(C)(C)C)C2=O,48 to 50
23,CNC(Cc1ccccc1)C(=O)N[C@@H](Cc1cccc2ccccc12)C(=O)O (some centres undefined),104 to 107

row,Structure (SMILES),melting point [°C]
1,CCC1(CC)c2cc(-c3nc4ccccc4s3)ccc2-c2ccc(N(c3ccc(Oc4ccc([N+](=O)[O-])cc4)cc3)c3ccc(Oc4ccc([N+](=O)[O-])cc4)cc3)cc21,223 to 225
2,CNc1nn(-c2ccc(C)c3c2OC(C)(C)C3)c(=O)o1,183 to 184
3,CC(=O)Nc1ccc2oc(-c3ccccc3)c(O)c(=O)c2c1,241 to 242
4,CCCCc1nc(C(O)CCC)c(C(N)=O)n1Cc1ccc(-c2ccccc2C(=O)O)cc1 (centres undefined),> 110
5,COc1nc(NC(=O)NS(=O)(=O)c2cccc3cccnc23)nc(OC)n1,151 to 153
6,O=C(c1cccs1)c1cnn2c(-c3cccs3)ccnc12,193 to 195
7,Cc1nn(C)c(-c2ccccc2)c1N,138 to 139
8,COc1c(C(C)(C)C)cc(C(N)=O)cc1C(C)(C)C,239 to 243
9,COC(=O)c1nc(-c2cc(F)c([Si](C)(C)C)cc2F)c(F)c(N)c1OC,137 to 139
10,COc1cc(OC)nc(NS(=O)(=O)C(C#N)C(C)C)n1 (centres undefined),91 to 93
11,COC(=O)c1ccn2cc(C)nc2c1,149
12,Cc1noc(NS(=O)(=O)c2cc(Cl)c(Cl)s2)c1Br,135 to 138
13,NC(=O)c1[nH]c2ccccc2c1-c1ccc(NC(=O)Nc2ccccc2F)cc1,146 to 148
14,O=C(O)CC1=CSCCS1,82
15,COc1cc(Nc2cccc(-c3ccccc3)c2)ccc1-c1cnco1,171 to 173
16,CC(C(N)=S)(c1ccccc1)c1ccccc1,150 to 152
17,COc1cc(C=O)c([N+](=O)[O-])c(OC)c1,104 to 105
18,COc1cn(-c2cccnc2)nc(-c2ccnn2-c2ccccc2)c1=O,210 to 212
19,CCCC1(Br)Cc2c(c(C)c(C)c3oc(C(=O)O)cc23)C1=O (centres undefined),233
20,COc1ccc(-c2ccnc3c(C(=O)c4cccs4)cnn23)c(OC)c1,146 to 148
21,CCN(CC)CCCNC(=O)C(C)n1cc(-c2ccccc2)c(-c2ccccc2)n1 (centres undefined),87 to 89
22,C[C@@H]1C(=O)C[C@H]2C[C@@H]1OO[C@@]2(C)/C=C/c1cc(C(F)(F)F)nc2c(Cl)cc(Cl)cc12,196

# Other lines, results leading:
row,melting point [°C],Structure (SMILES)
1,190,COc1ccc(CC2CCN(C(=O)NC(=O)c3ccc(O)cc3)CC2)cc1
2,237 to 239,CSCc1nn(-c2c(Cl)cc(C(F)(F)F)cc2Cl)nc1C=NC(C#N)=C(N)C#N
3,187 to 188,CCOC(=O)c1cc2cc(OCCCS(C)(=O)=O)cc(N)c2[nH]1
4,85 to 87,CC/C(=C(\c1ccc(I)cc1)c1ccc(OCCCCCS(=O)CCCC(F)(F)C(F)(F)F)cc1)c1ccccc1 (centres undefined)
5,36.6,CCN(CC)C(=O)C=Cc1ccc(C)c(C)c1
6,100 to 102,CC(Cn1ccnc1)Cn1nnc2ccc(Cl)cc2c1=O (centres undefined)
7,245 to 250,CCn1cc(C(=O)O)c(=O)c2cc(F)c(N3CC4CCCC3CN4)c(F)c21 (centres undefined)
8,194 to 195,CC(=O)N1CCN=C1Nc1cc(C)nn1-c1cccc2ccccc12
9,62 to 63,O=C1CCCOc2ccc(OCc3ccccc3)cc21
10,110 to 112,CNCc1ccc([C@H]2CC[C@@H](N(C)C(=O)c3ccc(Cl)cc3)CC2)cc1
11,96 to 105,C=C1CC(c2cnc(-c3ccccc3Cl)s2)N(C)C1=O (centres undefined)
12,> 300,O=c1[nH]c2ncc(-c3ccc(-c4nc5ccccc5[nH]4)cc3)nc2n1CC1CCOCC1
13,202 to 204,O=C(Nc1nc(-c2ccoc2)c(C(=O)C2CCOCC2)s1)c1ccnc(Cl)c1
14,216 to 222,CSc1c(C(=O)NN=Cc2nccs2)[nH]c2ccccc12
15,217 to 219,CCCOc1ccccc1-c1nc2nc(S(C)(=O)=O)ncc2c(=O)[nH]1
16,251 to 253,CCOCc1nc2c(N)nc3cc(OCc4ccc(F)cc4)ccc3c2n1CC(C)(C)NS(C)(=O)=O
17,81 to 82,COc1ccc(F)c(C)c1NC(=O)OC(C)(C)C
18,128 to 129,CCOc1cc(OCCCc2cn(-c3ccc(C(F)(F)F)cn3)nc2OC(C)C)ccc1CCC(=O)O
19,140 to 142,CC(C)(C)OC(=O)Nc1ccc(C#Cc2ccccc2F)cc1[N+](=O)[O-]
20,207 to 208,COc1ccc(C2=NNC(=O)CC2)cc1CO
21,136 to 137,COc1cc2c(cc1OCc1ccccc1)CCN(Cc1cc(OC)c(OC)c(OC)c1)C2=O
22,85 to 92,Clc1cccc2c1C1(CO1)c1ccccc1C21CO1 (centres undefined)
23,115 to 125,Cn1c(=O)c2c(C#N)cccc2n2cnc(-c3noc(C4CC4)n3)c12
24,132,Fc1ccc(N2CCN(c3cccc(C(F)(F)F)c3)CC2)nn1
25,211 to 214,COc1c(N2C[C@@H](N)[C@@H](C3CC3)C2)c(F)cc2c(=O)c(C(=O)O)cn([C@@H]3C[C@@H]3F)c12
26,109 to 110,COC(=O)C(NC(=S)n1nc(Oc2ncc(C(F)(F)F)cc2Cl)cc1C)C(C)C (centres undefined)
27,93 to 94,CNc1sc(Cl)cc1C(=O)c1ccccc1F

row,melting point [°C],Structure (SMILES)
1,188 to 189,O=C(O)CC1CCCc2c1n(Cc1cccc(Cl)c1)c1c(F)cc(F)cc21 (centres undefined)
2,80 to 81,CC(C(=O)c1ccccn1)c1ccc(C2CCCCC2)cc1 (centres undefined)
3,98 to 99,CCOC(=O)c1cc(-c2ccc(F)cc2)sc1N
4,137 to 138,CCN1CC(OCC2CCC2)(C(F)(F)F)c2cc(F)ccc2NC1=O (centres undefined)
5,215,Cc1ccc(C(=O)C2=C(O)C(=O)N(c3ccc(C)nn3)C2c2ccc(OC(F)(F)F)cc2)cc1 (centres undefined)
6,116 to 118,Cc1ccc(S(=O)(=O)OCC2Cc3cccc(-c4ccccc4C(F)(F)F)c3O2)cc1 (centres undefined)
7,158 to 159,COc1cccc2c1CCCC2=NO
8,224 to 225,O=C(O)Cc1ccc(NC(=O)Nc2ccccc2C(F)(F)F)cc1
9,82 to 83,CCOC(=O)C(=C1CCCN1C)c1ccc([N+](=O)[O-])cc1
10,182 to 184,COC(=O)[C@H]1CC[C@H](n2ccn(-c3ccc(C4(C)CCN(C(=O)C(F)(F)F)CC4)cc3)c2=O)CC1
11,149 to 150,CC(C)c1cc2c(cc1O)C(=O)CCC2
12,147 to 148,CC(C)CC1(C(CCNC(=O)c2ccc(F)c(F)c2)C(=O)OC(C)(C)C)CCN(CCc2ccccc2)C1=O (centres undefined)
13,156 to 158,CCOCn1cc(F)c(=O)n(C(=O)c2cccc(C(=O)Oc3nc(OC(=O)c4ccc(Cl)cc4)ccc3C#N)c2)c1=O
14,215 to 216,Cn1cc(CS(C)(=O)=O)c(=O)c2ccc(Cl)cc21
15,140 to 142,CCOC(=O)/C=C/c1cc2nc(CC)n(CCc3ccccc3)c(=O)c2cc1F
16,98 to 105,CCOC(=O)NC(=O)CNS(=O)(=O)c1ccc(N2CCC(NC[C@H](O)c3ccc(O)c(NS(C)(=O)=O)c3)CC2)cc1
17,183 to 184,O=C(O)C1(C(F)(F)F)NNC2=C1CCCC2 (centres undefined)
18,152 to 155,N#Cc1c(N2CCOCC2)cccc1[N+](=O)[O-]
19,228 to 230,CC(=O)NCC1CN(c2ccc(N3CCN(c4nnc(N)s4)C(F)C3)cc2)C(=O)O1 (centres undefined)
20,218 to 219,N#Cc1c[nH]cc1-c1ccc(F)c(Cl)c1F
21,168,Cc1cc(N)nc(CCc2nc3cc(-c4ccc(S(=O)(=O)N5CCC5)cc4)cnc3[nH]2)c1
22,149 to 151,CC1OC(c2cc(-n3c(=O)cc(C(F)(F)F)n(C)c3=O)ccc2Cl)OC1C (centres undefined)
23,226 to 227,CC(=O)NC1(CNS(=O)(=O)c2ccccc2)CCN(C(=O)OC(C)(C)C)CC1
24,69 to 72,CCCCCCCCOC(=O)COc1cc(F)ccc1C(=S)NCc1cccc([N+](=O)[O-])c1
25,128 to 130,C=COCCONC(=O)c1cc(Br)c(F)c(F)c1Nc1ccc(I)cc1F
26,188 to 189,COC(=O)c1cc(Cl)c(N=C2NCCN2C(C)=O)c(Cl)c1
27,84 to 87,O=c1oc(-c2cccc(OC(F)F)c2)nc2ccccc12

# Reference: a melting point compilation (Tetko et al.; mined from patent text by program, amines drawn as free bases though some values may be those of a salt)
